# According to paper PMC9508125, “The evolutionary advantage of an aromatic clamp in plant family 3 glycoside exo-hydrolases” (Nature Communications, 2022):
# Positions count from the first letter of the chain named.
# Tests used:
# Experiment in all cases: Relative rates of hydrolysis of poly-, oligosaccharides and aryl-glycosides
# Assay type in all cases: biochemical
# HvExoI W286Y mutant = target: T1, HvExoI W286Y mutant (Hordeum vulgare, UniProt Q9XEI3, W311Y); conditions: substance is the substrate, nd = activity not detected
# T1 sequence (Q9XEI3 26-630 W311Y): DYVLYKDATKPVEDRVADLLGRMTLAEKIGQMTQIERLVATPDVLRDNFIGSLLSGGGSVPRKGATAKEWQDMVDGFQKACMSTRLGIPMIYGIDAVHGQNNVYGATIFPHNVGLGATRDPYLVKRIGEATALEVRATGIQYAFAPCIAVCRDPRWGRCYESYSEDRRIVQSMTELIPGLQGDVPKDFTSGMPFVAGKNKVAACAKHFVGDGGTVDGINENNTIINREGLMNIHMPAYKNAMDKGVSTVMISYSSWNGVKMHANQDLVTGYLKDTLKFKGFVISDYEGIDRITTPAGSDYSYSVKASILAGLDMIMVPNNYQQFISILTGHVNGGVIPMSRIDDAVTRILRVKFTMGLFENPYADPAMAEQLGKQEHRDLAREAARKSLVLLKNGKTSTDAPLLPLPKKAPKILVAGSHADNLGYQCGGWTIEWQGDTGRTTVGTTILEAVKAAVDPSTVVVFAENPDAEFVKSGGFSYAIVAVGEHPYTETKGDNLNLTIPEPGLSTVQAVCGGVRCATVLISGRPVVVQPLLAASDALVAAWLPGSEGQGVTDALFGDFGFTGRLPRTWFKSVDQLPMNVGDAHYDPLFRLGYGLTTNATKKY
# Method: (§1) Dependency of activities of WT and mutant HvExoI on pH (McIlvaine buffers in the pH range of 3.5–8.5 at 30 °C) and temperature (100 mM sodium acetate buffer, pH 5.25, temperature range 0–80 °C, 15 min incubations) were determined using 0.2% (w/v) 4NP-Glc[21],[59]. Relative rates of hydrolysis of β-linked poly-, oligosaccharides, and aryl-glucosides were determined using near-homogenous HvExoI at 50 pmoles. […] Kinetic parameters were calculated from the analyses of Michaelis-Menten plots with Grafit 7.0.3[62] and processed by a proportional weighted fit, using nonlinear regression. The relative rates of hydrolysis, kinetic, and inhibition data were rounded to one or two decimal points (Supplementary Tables 2–4).
# HvExoI W434H mutant = target: T2, HvExoI W434H mutant (Hordeum vulgare, UniProt Q9XEI3, W459H); conditions: substance is the substrate
# T2 sequence (Q9XEI3 26-630 W459H): T1 sequence (Q9XEI3 26-630 W311Y) with Y286W, W434H
# Method: as §1
# [1] = target: T3, HvExoI W286F/W434F mutant (Hordeum vulgare, UniProt Q9XEI3, W311F/W459F); conditions: substance is the substrate, nd = activity not detected
# T3 sequence (Q9XEI3 26-630 W311F/W459F): T1 sequence (Q9XEI3 26-630 W311Y) with Y286F, W434F
# Method: as §1
# HvExoI W434Y mutant = target: T4, HvExoI W434Y mutant (Hordeum vulgare, UniProt Q9XEI3, W459Y); conditions: substance is the substrate, nd = activity not detected
# T4 sequence (Q9XEI3 26-630 W459Y): T1 sequence (Q9XEI3 26-630 W311Y) with Y286W, W434Y
# Method: as §1
Compound,Activity (relative rate of hydrolysis) (HvExoI W286Y mutant) [μmole/min per mg protein],Activity (relative rate of hydrolysis) (HvExoI W434H mutant) [μmole/min per mg protein],Activity (relative rate of hydrolysis) [1] [μmole/min per mg protein],Activity (relative rate of hydrolysis) (HvExoI W434Y mutant) [μmole/min per mg protein]
OC[C@H]1O[C@@H](O[C@H]2[C@H](O)[C@@H](O)[C@H](O[C@H]3[C@H](O)[C@@H](O)[C@H](O[C@H]4[C@H](O)[C@@H](O)[C@H](O[C@H]5[C@H](O)[C@@H](O)C(O)O[C@@H]5CO)O[C@@H]4CO)O[C@@H]3CO)O[C@@H]2CO)[C@H](O)[C@@H](O)[C@@H]1O (stereo partly shown) [Cellopentaose],5.8 ± 0.2,0.2 ± 0.01,0.02 ± 0.001,0.1 ± 0.002
Gentiobiose,7.6 ± 0.8,0.3 ± 0.02,0.01 ± 0.001,0.1 ± 0.01
OC[C@H]1O[C@@H](O[C@@H]2[C@@H](O)[C@H](O[C@@H]3[C@@H](O)[C@H](O[C@@H]4[C@@H](O)[C@H](O[C@@H]5[C@@H](O)[C@H](O[C@H]6[C@H](O)[C@@H](CO)OC(O)[C@@H]6O)O[C@H](CO)[C@H]5O)O[C@H](CO)[C@H]4O)O[C@H](CO)[C@H]3O)O[C@H](CO)[C@H]2O)[C@H](O)[C@@H](O)[C@@H]1O (stereo partly shown) [Laminarihexaose],15.8 ± 0.1,1.5 ± 0.1,0.5 ± 0.1,1.4 ± 0.1
OC[C@H]1O[C@@H](O[C@H]2[C@H](O)[C@@H](O)[C@H](O[C@H]3[C@H](O)[C@@H](O)[C@H](O[C@H]4[C@H](O)[C@@H](O)[C@H](O[C@H]5[C@H](O)[C@@H](O)[C@H](O[C@H]6[C@H](O)[C@@H](O)C(O)O[C@@H]6CO)O[C@@H]5CO)O[C@@H]4CO)O[C@@H]3CO)O[C@@H]2CO)[C@H](O)[C@@H](O)[C@@H]1O (stereo partly shown) [Cellohexaose],7.0 ± 0.1,0.3 ± 0.02,0.01 ± 0.001,0.1 ± 0.01
